Experimental findings from patent publication US12209071B2, “Triazine derivatives for treating diseases relating to neurotrophins” (AlzeCure Pharma AB, priority 2018, dated 2025) are described below.

The target in one test is T1, TrkB (Homo sapiens, UniProt Q16620).
T1 construct: expressed in transfected cells; host or cells: U2OS
Nature of the test: Enzyme Fragment Complementation cell-based assay, TrkB. To be noted: U2OS-cells over-expressing TrkB; ligand 10 ng/mL; 3 hours incubation. From the text: (§1) A high throughput cell-based screen has been used to identify positive modulators of TrkA, TrkB and TrkC. The screen involves the use of cell-based assay overexpressing TrkA, TrkB or TrkC. The purpose of the assay is to identify compounds that modulate neurotrophin signalling (Forsell et al 2012). The assay can be used in inhibitor mode using a high concentration of ligand, in modulator mode using an intermediate concentration and in agonist mode using a low concentration of ligand.
(§2) The assay uses Enzyme Fragment Complementation (EFC) technique, which is a proximity-based assay. Briefly, cells used in this assay over-express two fusion proteins, i.e. the receptor, which can be either one of TrkA, TrkB, TrkC, IGF1R or FGFR1, fused to a small peptide of beta-galactosidase and an adaptor protein, i.e. SHC1 (or any other Trk-adaptor protein) fused to the major part of beta-galactosidase. […] The proximity between the small activating peptide on the receptor and the major part of beta-galactosidase on the adaptor protein leads to an active beta-galactosidase enzyme. The activation of the receptor is quantified by measuring the amount of active beta-galactosidase by its conversion of a non-luminescent substrate into a luminescent product.
(§3) U2OS-cells, over-expressing TrkA or TrkB or TrkC, are plated in 96- or 384-well plates and incubated overnight. Alternatively, cryopreserved HEK293-cells expressing IGFR1 or cryopreserved U2OS-cells expressing FGFR1 were plated in 96- or 384-well plates. On the following day, test compound was pre-mixed with ligand (NGF, BDNF, NT-3, IGF-1 or basic fibroblast growth factor (bFGF(FGF-2))) and the ligand-compound mixture is then added to the cells to yield a final ligand concentration of 10 ng/mL. After 3 hours of incubation at room temperature, the incubation is stopped by the addition of a beta-galactosidase substrate mixture containing detergents. The substrate mixture is incubated for 60 minutes at ambient temperature. The luminescence is thereafter read by the use of a plate reader.

The target of a further test is T2, TrkC (Homo sapiens, UniProt Q16288).
T2 construct: expressed in transfected cells; host or cells: U2OS
Nature of the test: Enzyme Fragment Complementation cell-based assay, TrkC. To be noted: U2OS-cells over-expressing TrkC; ligand 10 ng/mL; 3 hours incubation.
From the text: as §1, §2, §3

In a further test the target is T3, TrkA (Homo sapiens, UniProt P04629).
T3 construct: expressed in transfected cells; host or cells: U2OS
Nature of the test: Enzyme Fragment Complementation cell-based assay, TrkA. The note with it: U2OS-cells over-expressing TrkA; ligand 10 ng/mL; 3 hours incubation.
From the text: as §1, §2, §3

T3 sequence (P04629 33-796): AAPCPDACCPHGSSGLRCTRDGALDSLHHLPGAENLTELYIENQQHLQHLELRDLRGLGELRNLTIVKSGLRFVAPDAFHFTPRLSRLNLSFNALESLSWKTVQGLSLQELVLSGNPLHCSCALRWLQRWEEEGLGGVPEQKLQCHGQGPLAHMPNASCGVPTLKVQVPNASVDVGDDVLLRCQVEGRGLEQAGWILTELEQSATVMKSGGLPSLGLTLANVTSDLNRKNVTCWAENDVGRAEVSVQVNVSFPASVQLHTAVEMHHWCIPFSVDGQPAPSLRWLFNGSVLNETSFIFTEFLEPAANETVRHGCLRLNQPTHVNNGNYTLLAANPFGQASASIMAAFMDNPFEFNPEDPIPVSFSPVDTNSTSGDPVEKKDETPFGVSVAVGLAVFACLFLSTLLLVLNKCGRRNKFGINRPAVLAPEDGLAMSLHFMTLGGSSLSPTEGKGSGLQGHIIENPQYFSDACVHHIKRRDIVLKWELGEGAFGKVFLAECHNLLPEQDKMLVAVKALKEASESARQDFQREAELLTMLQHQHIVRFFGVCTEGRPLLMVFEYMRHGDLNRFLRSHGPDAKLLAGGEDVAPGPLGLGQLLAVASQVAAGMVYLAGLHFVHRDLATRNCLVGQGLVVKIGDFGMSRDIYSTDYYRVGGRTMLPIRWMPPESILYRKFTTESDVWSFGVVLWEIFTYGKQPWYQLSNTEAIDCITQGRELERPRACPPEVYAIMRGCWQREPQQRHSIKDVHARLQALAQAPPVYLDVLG
T2 sequence (Q16288 32-839): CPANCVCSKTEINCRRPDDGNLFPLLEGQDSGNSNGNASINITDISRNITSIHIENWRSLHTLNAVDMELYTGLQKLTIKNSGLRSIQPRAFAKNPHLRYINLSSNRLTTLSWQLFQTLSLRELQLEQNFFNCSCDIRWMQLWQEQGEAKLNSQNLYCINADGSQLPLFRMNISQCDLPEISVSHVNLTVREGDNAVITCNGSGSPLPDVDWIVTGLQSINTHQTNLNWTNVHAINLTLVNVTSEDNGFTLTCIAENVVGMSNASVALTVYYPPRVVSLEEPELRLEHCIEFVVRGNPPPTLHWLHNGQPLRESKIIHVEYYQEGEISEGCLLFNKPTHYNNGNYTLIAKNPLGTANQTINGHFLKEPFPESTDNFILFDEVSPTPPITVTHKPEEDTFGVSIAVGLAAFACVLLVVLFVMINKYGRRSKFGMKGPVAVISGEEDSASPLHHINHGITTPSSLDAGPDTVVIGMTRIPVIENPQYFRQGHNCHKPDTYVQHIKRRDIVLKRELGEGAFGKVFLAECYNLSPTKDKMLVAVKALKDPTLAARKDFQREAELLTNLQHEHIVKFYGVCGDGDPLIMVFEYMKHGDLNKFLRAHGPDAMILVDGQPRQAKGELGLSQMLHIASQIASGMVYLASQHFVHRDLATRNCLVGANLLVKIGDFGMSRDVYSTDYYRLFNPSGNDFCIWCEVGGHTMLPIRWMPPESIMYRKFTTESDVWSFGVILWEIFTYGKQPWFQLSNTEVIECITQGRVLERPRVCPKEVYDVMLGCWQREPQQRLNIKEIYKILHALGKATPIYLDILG
T1 sequence (Q16620 32-822): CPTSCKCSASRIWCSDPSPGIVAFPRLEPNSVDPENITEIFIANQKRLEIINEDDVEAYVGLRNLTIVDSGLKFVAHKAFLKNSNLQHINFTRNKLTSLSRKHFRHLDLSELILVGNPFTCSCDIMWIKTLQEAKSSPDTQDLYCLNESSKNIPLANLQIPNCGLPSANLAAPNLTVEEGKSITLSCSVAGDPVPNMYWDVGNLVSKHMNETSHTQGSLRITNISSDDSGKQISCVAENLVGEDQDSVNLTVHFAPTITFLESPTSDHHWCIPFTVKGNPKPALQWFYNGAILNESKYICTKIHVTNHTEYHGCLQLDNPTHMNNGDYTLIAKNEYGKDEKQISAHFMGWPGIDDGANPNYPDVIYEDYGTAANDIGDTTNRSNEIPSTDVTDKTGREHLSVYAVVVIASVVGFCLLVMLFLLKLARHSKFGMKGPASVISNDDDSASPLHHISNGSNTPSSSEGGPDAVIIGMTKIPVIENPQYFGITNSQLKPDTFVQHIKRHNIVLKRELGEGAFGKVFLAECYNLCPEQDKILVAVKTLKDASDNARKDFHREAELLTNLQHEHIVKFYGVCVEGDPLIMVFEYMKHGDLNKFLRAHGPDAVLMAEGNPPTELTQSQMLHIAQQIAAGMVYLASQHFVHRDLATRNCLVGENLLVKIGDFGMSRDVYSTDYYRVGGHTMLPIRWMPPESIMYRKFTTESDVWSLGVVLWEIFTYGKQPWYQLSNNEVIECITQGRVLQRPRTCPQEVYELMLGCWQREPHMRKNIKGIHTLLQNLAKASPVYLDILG

In general, EC50 refers to the midpoint of the concentration-response curve. A high value points to weaker potency. Take `Cn1c(=O)[nH]c(=O)n(-c2ccc(Oc3ccccc3)c(Cl)c2)c1=O` [Example 65, 1-(3-chloro-4-phenoxyphenyl)-3-methyl-1,3,5-triazinane-2,4,6-trione]: the concentration giving a half-maximal response (EC50) at TrkB came out at 1600 nM; on TrkC, 320 nM; at TrkA, 4500 nM.

With `CC(C)Oc1cc(-n2c(=O)[nH]c(=O)n(-c3ccccc3)c2=O)ccc1Oc1ccccc1` [Example 27, 1-[4-phenoxy-3-(propan-2-yloxy)phenyl]-3-phenyl-1,3,5-triazinane-2,4,6-trione], the EC50 came to 370 nM at TrkB, 330 nM on TrkC and 360 nM on TrkA.

Turning to `Cn1c(=O)[nH]c(=O)n(-c2ccc(Oc3ccc(Cl)cc3)cc2)c1=O` [Example 64, 1-[4-(4-chlorophenoxy)phenyl]-3-methyl-1,3,5-triazinane-2,4,6-trione], the EC50 on TrkB was determined as 5900 nM; on TrkC, 9600 nM; at TrkA, 4400 nM.

In the case of `COCCOc1cc(-n2c(=O)[nH]c(=O)n(C)c2=O)ccc1Oc1ccccc1` [Example 28, 1-[3-(2-methoxyethoxy)-4-phenoxyphenyl]-3-methyl-1,3,5-triazinane-2,4,6-trione], the EC50 is 990 nM at TrkB, 520 nM at TrkC and 1000 nM on TrkA.

Turning to `COCCOc1cc(-n2c(=O)[nH]c(=O)n(-c3ccccc3)c2=O)ccc1Oc1ccccc1` [Example 29, 1-[3-(2-methoxyethoxy)-4-phenoxyphenyl]-3-phenyl-1,3,5-triazinane-2,4,6-trione], the figures for the concentration giving a half-maximal response (EC50) at TrkB, at TrkC and at TrkA were 500 nM, 340 nM and 560 nM, respectively.

For the compound `COCCOc1cc(-n2c(=O)[nH]c(=O)n(-c3cccc(Cl)c3)c2=O)ccc1Oc1ccccc1` [Example 58, 1-(3-chlorophenyl)-3-[3-(2-methoxyethoxy)-4-phenoxyphenyl]-1,3,5-triazinane-2,4,6-trione], the EC50 turned out to be 230 nM on TrkB, 180 nM at TrkC and 220 nM at TrkA.

Regarding `Cn1c(=O)[nH]c(=O)n(-c2ccc(Oc3ccccc3)c(OC3CCOC3)c2)c1=O` (stereo not drawn) [Example 22, 1-methyl-3-[3-(oxolan-3-yloxy)-4-phenoxyphenyl]-1,3,5-triazinane-2,4,6-trione], the EC50 on TrkB was 3600 nM; on TrkC, 3000 nM; on TrkA, 1300 nM.

Take `Cc1cn(Cc2ccccc2)c2ccc(-n3c(=O)[nH]c(=O)n(C)c3=O)cc12` [Example 38, 1-(1-benzyl-3-methyl-1H-indol-5-yl)-3-methyl-1,3,5-triazinane-2,4,6-trione]: the values for the EC50 at TrkB, at TrkC and on TrkA were 4200 nM, 2400 nM and 4500 nM, respectively.

`Cc1ccc(-n2c(=O)[nH]c(=O)n(-c3ccc(Oc4ccccc4)c(C)c3)c2=O)s1` [Example 40, 1-(3-methyl-4-phenoxyphenyl)-3-(5-methylthiophen-2-yl)-1,3,5-triazinane-2,4,6-trione]: the values for the EC50 at TrkB, on TrkC and at TrkA were 280 nM, 140 nM and 260 nM, respectively.

As for `Cc1cc(-n2c(=O)[nH]c(=O)n(-c3cnn(-c4ccccc4)c3)c2=O)ccc1Oc1ccccc1` [Example 68, 1-(3-methyl-4-phenoxyphenyl)-3-(1-phenyl-1H-pyrazol-4-yl)-1,3,5-triazinane-2,4,6-trione], the EC50 on TrkB came to 360 nM; at TrkC, 1100 nM; at TrkA, 230 nM.

Turning to `O=c1[nH]c(=O)n(-c2ccc(Oc3ccccc3)c(Br)c2)c(=O)n1-c1ccccc1` [Example 69, 1-(3-bromo-4-phenoxyphenyl)-3-phenyl-1,3,5-triazinane-2,4,6-trione], the EC50 on TrkB was 250 nM; on TrkC it was 190 nM; at TrkA, 220 nM.

For `Cn1c(=O)[nH]c(=O)n(-c2ccc(Oc3ccccc3)c(OCc3ccccc3)c2)c1=O` [Example 30, 1-[3-(benzyloxy)-4-phenoxyphenyl]-3-methyl-1,3,5-triazinane-2,4,6-trione], the EC50 on TrkB worked out at 7500 nM; on TrkC, 890 nM; at TrkA it was 1100 nM.

Turning to `O=c1[nH]c(=O)n(-c2ccc(Oc3ccccc3)c(OC3CCOC3)c2)c(=O)n1-c1ccccc1` (stereo not drawn) [Example 17, 1-[3-(oxolan-3-yloxy)-4-phenoxyphenyl]-3-phenyl-1,3,5-triazinane-2,4,6-trione], the values for the concentration giving a half-maximal response (EC50) at TrkB, at TrkC and on TrkA were 750 nM, 480 nM and 780 nM, respectively.

In the case of `Cn1c(=O)[nH]c(=O)n(-c2ccc(Oc3ccccc3)c(OCC3COC3)c2)c1=O` [Example 24, 1-methyl-3-[3-(oxetan-3-ylmethoxy)-4-phenoxyphenyl]-1,3,5-triazinane-2,4,6-trione], the EC50 at TrkB was 610 nM; at TrkC, 220 nM; on TrkA, 500 nM.

As for `Cc1cn(-c2ccccc2)c2ccc(-n3c(=O)[nH]c(=O)n(-c4ccccc4)c3=O)cc12` [Example 35, 1-(3-Methyl-1-phenyl-1H-indol-5-yl)-3-phenyl-1,3,5-triazinane-2,4,6-trione], the concentration for a half-maximal effect (EC50) at TrkB was 260 nM; on TrkC it was 500 nM; on TrkA, 980 nM.

As to `O=c1[nH]c(=O)n(-c2ccc(Oc3ccccc3)c(Cl)c2)c(=O)n1-c1ccccc1` [Example 39, 1-(3-chloro-4-phenoxyphenyl)-3-phenyl-1,3,5-triazinane-2,4,6-trione], the EC50 on TrkB amounted to 680 nM; at TrkC, 880 nM; on TrkA it was 1400 nM.

Take `CC(C)Oc1cc(-n2c(=O)[nH]c(=O)n(C)c2=O)ccc1Oc1ccccc1` [Example 26, 1-methyl-3-[4-phenoxy-3-(propan-2-yloxy)phenyl]-1,3,5-triazinane-2,4,6-trione]: the EC50 at TrkB was determined as 1500 nM; at TrkC it was 2000 nM; at TrkA, 1100 nM.

As for `O=c1[nH]c(=O)n(-c2ccc(Nc3ccccc3)cc2)c(=O)n1-c1ccccc1` [Example 20, 1-phenyl-3-[4-(phenylamino)phenyl]-1,3,5-triazinane-2,4,6-trione], the figures for the EC50 at TrkB, on TrkC and on TrkA were 8900 nM, 3200 nM and 6900 nM, respectively.

Consider `COCCOc1cc(-n2c(=O)[nH]c(=O)n(-c3cccc(C)c3)c2=O)ccc1Oc1ccccc1` [Example 57, 1-[3-(2-methoxyethoxy)-4-phenoxyphenyl]-3-(3-methylphenyl)-1,3,5-triazinane-2,4,6-trione], for which the values for the EC50 at TrkB, on TrkC and at TrkA were 120 nM, 90 nM and 180 nM, respectively.

As for `COCCOc1cc(-n2c(=O)[nH]c(=O)n(-c3ccc(C)cc3)c2=O)ccc1Oc1ccccc1` [Example 56, 1-[3-(2-methoxyethoxy)-4-phenoxyphenyl]-3-(4-methylphenyl)-1,3,5-triazinane-2,4,6-trione], the 50% effective concentration (EC50) at TrkB was 110 nM; at TrkC, 170 nM; on TrkA, 290 nM.

For `CCOc1cc(-n2c(=O)[nH]c(=O)n(C)c2=O)ccc1Oc1ccccc1` [Example 21, 1-(3-ethoxy-4-phenoxyphenyl)-3-methyl-1,3,5-triazinane-2,4,6-trione], the results for the EC50 on TrkB, on TrkC and on TrkA were 2300 nM, 1200 nM and 2100 nM, respectively.

As to `O=c1[nH]c(=O)n(-c2ccc(Oc3ccccc3)c(OCC3COC3)c2)c(=O)n1-c1ccccc1` [Example 25, 1-[3-(oxetan-3-ylmethoxy)-4-phenoxyphenyl]-3-phenyl-1,3,5-triazinane-2,4,6-trione], the values for the EC50 on TrkB, at TrkC and on TrkA were 790 nM, 1000 nM and 550 nM, respectively.

Take `O=c1[nH]c(=O)n(-c2ccc(Oc3ccccc3)c(OC3CCCC3)c2)c(=O)n1-c1ccccc1` [Example 23, 1-[3-(cyclopentyloxy)-4-phenoxyphenyl]-3-phenyl-1,3,5-triazinane-2,4,6-trione]: the EC50 is 920 nM on TrkB, 770 nM at TrkC and 1000 nM on TrkA.

Turning to `COCCOc1cc(-n2c(=O)[nH]c(=O)n(-c3ccc(Cl)cc3)c2=O)ccc1Oc1ccccc1` [Example 59, 1-(4-chlorophenyl)-3-[3-(2-methoxyethoxy)-4-phenoxyphenyl]-1,3,5-triazinane-2,4,6-trione], the figures for the EC50 on TrkB, at TrkC and on TrkA were 460 nM, 330 nM and 480 nM, respectively.

As for `Cn1c(=O)[nH]c(=O)n(-c2ccc(Oc3ccccc3)c(OC3CCCC3)c2)c1=O` [Example 15, 1-[3-(cyclopentyloxy)-4-phenoxyphenyl]-3-methyl-1,3,5-triazinane-2,4,6-trione], the figures for the EC50 on TrkB, at TrkC and at TrkA were 650 nM, 1100 nM and 590 nM, respectively.
